{
  "source": "paper doi:10.64898/2026.08.16.745104v1",
  "about": "“C. elegans Dicer stacks with the RIG-I-like receptor DRH-1 to cleave dsRNA” (biorxiv, 2026)",
  "key": {"[1]": {"molecular_target": "T1, DCR-1 in the antiviral complex (AVC; DCR-1•DRH-1•RDE-4) (Caenorhabditis elegans, UniProt P34529)", "T1 construct": "three proteins co-expressed in Sf9 cells (baculovirus), StrepTrap and Superose 6 purified; ADP in DCR-1 helicase domain (Hel1/Hel2); with Dicer Related Helicase", "T1 sequence (P34529 whole entry, the tested form may be a part)": "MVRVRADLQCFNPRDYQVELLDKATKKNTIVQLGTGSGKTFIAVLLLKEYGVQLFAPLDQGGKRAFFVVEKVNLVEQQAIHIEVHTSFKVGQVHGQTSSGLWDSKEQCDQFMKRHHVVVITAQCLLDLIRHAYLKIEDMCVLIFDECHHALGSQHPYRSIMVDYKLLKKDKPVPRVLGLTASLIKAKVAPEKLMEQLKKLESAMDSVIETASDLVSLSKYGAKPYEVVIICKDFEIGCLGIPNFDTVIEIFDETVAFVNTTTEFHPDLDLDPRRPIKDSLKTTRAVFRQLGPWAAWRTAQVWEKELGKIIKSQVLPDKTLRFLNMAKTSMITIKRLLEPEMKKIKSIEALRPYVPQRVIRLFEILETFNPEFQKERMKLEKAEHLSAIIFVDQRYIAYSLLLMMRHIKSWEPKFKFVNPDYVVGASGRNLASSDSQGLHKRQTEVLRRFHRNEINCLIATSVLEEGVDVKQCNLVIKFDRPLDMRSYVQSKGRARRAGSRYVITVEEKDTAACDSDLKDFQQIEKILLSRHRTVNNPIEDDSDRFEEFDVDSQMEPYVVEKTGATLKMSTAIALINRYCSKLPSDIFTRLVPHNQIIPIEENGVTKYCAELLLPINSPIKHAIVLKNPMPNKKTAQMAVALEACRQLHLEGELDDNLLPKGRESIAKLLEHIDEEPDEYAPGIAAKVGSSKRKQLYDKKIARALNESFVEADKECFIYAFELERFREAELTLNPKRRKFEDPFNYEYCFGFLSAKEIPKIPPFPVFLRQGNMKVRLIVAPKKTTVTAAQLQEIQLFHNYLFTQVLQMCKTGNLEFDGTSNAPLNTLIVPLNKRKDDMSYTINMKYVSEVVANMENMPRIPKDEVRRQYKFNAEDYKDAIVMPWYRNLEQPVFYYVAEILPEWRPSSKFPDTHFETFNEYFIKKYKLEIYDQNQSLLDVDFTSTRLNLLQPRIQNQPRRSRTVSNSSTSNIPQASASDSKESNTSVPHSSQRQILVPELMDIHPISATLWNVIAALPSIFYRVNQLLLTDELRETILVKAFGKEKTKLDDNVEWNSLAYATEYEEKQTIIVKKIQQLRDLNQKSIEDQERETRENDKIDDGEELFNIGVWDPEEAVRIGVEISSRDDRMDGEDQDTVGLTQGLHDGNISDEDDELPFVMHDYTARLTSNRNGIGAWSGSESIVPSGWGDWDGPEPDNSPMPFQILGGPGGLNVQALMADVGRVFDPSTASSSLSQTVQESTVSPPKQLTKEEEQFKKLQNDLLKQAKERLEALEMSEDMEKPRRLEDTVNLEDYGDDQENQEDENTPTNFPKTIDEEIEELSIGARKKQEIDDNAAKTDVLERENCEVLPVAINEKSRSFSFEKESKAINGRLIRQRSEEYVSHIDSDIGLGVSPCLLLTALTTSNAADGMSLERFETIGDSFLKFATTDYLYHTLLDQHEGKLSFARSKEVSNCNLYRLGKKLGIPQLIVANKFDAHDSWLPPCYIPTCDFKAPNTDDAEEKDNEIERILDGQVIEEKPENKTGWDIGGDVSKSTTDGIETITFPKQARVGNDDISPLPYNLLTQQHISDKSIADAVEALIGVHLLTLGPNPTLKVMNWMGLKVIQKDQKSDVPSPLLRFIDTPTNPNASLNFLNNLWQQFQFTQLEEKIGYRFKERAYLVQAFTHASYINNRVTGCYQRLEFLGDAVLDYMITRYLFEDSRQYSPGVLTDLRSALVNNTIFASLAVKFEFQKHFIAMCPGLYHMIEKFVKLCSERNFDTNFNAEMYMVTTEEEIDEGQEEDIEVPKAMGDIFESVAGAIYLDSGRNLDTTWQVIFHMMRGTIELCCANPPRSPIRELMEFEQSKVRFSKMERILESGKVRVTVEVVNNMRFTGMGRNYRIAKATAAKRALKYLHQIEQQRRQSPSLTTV", "T1 sequence (G5EDI8 1-1037 partner)": "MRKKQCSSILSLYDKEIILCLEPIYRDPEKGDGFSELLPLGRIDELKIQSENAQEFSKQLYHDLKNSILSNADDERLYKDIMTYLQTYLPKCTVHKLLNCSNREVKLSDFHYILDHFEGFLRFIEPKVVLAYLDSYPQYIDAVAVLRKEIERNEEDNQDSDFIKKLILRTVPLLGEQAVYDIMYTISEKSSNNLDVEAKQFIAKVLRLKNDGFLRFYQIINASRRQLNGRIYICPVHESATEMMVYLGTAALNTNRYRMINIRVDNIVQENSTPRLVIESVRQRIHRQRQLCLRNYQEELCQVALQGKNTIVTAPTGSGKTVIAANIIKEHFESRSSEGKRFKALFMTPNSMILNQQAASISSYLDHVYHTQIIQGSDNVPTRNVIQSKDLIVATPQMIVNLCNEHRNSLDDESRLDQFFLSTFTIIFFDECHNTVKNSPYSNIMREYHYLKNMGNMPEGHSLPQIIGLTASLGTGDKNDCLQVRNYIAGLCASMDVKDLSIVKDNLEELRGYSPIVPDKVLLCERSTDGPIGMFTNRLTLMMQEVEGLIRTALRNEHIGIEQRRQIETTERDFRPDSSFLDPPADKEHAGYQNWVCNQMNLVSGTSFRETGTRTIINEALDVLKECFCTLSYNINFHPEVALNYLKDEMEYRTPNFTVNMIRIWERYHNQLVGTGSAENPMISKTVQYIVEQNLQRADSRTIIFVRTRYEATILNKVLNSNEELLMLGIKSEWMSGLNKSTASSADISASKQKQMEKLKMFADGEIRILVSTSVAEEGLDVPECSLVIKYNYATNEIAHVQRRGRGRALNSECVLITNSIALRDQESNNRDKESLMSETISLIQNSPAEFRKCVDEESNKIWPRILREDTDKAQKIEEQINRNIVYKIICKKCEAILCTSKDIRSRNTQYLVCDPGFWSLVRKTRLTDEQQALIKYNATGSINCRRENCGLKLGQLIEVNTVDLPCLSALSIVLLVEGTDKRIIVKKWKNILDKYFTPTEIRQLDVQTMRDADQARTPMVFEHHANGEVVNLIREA", "T1 sequence (G5EBF5 1-385 partner)": "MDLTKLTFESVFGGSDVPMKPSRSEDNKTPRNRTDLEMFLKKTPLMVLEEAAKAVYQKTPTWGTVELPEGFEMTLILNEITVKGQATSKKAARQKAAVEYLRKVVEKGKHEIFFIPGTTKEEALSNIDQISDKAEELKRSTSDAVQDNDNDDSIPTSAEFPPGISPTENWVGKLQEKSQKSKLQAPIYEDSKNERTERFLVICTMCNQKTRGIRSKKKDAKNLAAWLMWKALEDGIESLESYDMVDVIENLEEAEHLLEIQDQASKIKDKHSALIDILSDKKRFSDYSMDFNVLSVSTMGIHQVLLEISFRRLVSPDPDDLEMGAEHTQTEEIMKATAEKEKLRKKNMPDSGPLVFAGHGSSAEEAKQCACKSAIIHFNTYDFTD", "test": "cryo-EM structure, […] Å", "format": "binding", "conditions": "helicase nucleotide pocket between Hel1 and Hel2; Mg2+; sample incubated with 5 mM ATP and 3'ovr 106-dsRNA, pH 7.5, 20 °C"}, "[2]": {"molecular_target": "T2, DRH-1 in the antiviral complex (AVC; DCR-1•DRH-1•RDE-4) (Caenorhabditis elegans, UniProt G5EDI8)", "T2 construct": "three proteins co-expressed in Sf9 cells (baculovirus), StrepTrap and Superose 6 purified; two stacked DRH-1 helicases (DRH-1 and DRH-1*, the latter only helicase and CTD resolved); with Endoribonuclease dcr-1", "T2 sequence (G5EDI8 1-1037)": "as the sequence (G5EDI8 1-1037 partner) above", "T2 sequence (P34529 whole entry partner)": "as the sequence (P34529 whole entry, the tested form may be a part) above", "T2 sequence (G5EBF5 1-385 partner)": "as the sequence (G5EBF5 1-385 partner) above", "test": "cryo-EM structure, […] Å", "conditions": "ATP-binding pockets of both DRH-1 helicases (DRH-1 and DRH-1*); sample incubated with 5 mM ATP and 3'ovr 106-dsRNA, pH 7.5, 20 °C"}},
  "data": [
    {"smiles": "Nc1ncnc2c1ncn2[C@@H]1O[C@H](COP(=O)(O)OP(=O)(O)O)[C@@H](O)[C@H]1O", "note": "[ADP]", "values": [
      {"measurement": "cryo-EM structure, 3.0 Å", "setting": "[1]", "value": "we modeled ADP within the conserved nucleotide-binding pocket of the DCR-1 helicase"},
      {"measurement": "cryo-EM structure, 3.0 Å", "setting": "[2]", "value": "ADP was also present in the ATP-binding pockets of both DRH-1 helicases"}
    ]}
  ]
}
